Source: patent US20040180908A1, “Adenosine derivative in polymorph ii form” (priority 2001, published 2004)

Test: stability of the polymorph at elevated temperatures
Type: physicochemical
Conditions: for example in excess of 70° C.

CC(C)(C)c1nnc([C@H]2O[C@@H](n3cnc4c(Nc5ccc(Cl)cc5F)ncnc43)[C@H](O)[C@@H]2O)o1 [Polymorph II, (2S,3S,4R,5R)-2-(5-tert-butyl-[1,3,4]-oxadiazol-2-yl)-5-[6-(4-chloro-2-fluorophenylamino)-9H-purin-9-yl]-tetrahydrofuran-3,4-diol]
stability at elevated temperatures: particular stability at elevated temperatures
